Experimental data as given in article PMC4680881 (Scientific Reports, 2015).
Several values for one entry are separate records, joined by “and”; a condition that tells them apart may be missing. Equal values may be shown once. Read-outs that look alike come from different tables or passages of the source.

Legend:
amyloid plaques = details: cited from earlier work
Aβ aggregates = details: cited from earlier work
PrP^Sc deposits [1] = target: T1, PrP^Sc deposits (Mus musculus, UniProt P04925); details: 100 μM compound; for Fluorescence staining: brain sections from mock-infected mice; for Fluorescence staining of PrP^Sc deposits: brain slices from mBSE-infected mice
T1 sequence (P04925 23-230 limits assumed): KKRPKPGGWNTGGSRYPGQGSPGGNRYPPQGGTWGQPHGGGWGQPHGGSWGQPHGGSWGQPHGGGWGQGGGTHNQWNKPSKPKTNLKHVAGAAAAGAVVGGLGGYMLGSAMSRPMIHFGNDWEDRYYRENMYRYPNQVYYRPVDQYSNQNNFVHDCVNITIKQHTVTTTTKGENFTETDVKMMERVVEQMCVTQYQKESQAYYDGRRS

PrP^Sc deposits [2] = target: T1, PrP^Sc deposits; assay type: in vivo
PrP^Sc deposits [3] = target: T1, PrP^Sc deposits; assay type: in vivo; remark: listed apart in the source
PrP^Sc deposits [4] = target: T1, PrP^Sc deposits
rMoPrP aggregates [5] = target: T2, rMoPrP aggregates (Mus musculus, UniProt P04925); experiment: biochemical; assay type: binding
T2 sequence (P04925 23-231 limits assumed): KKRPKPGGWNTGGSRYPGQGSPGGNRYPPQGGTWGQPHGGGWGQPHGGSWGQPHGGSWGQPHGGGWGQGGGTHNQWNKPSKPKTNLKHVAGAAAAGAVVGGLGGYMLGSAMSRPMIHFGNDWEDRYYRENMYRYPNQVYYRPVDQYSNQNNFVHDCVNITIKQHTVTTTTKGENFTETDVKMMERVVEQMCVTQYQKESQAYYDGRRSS

rMoPrP aggregates [6] = target: T2, rMoPrP aggregates; experiment: biochemical; assay type: binding; remark: listed apart in the source
Aβ (1–42) fibrils = details: cited from earlier work
[7] = mouse, in vivo; cited from earlier work

CN(C)c1ccc(/C=C/C(=O)c2ccc(I)cc2)cc1 [CL-NMe2, (E)-3-(4-(Dimethylamino)phenyl)-1-(4-iodophenyl) prop-2-en-1-one]
Staining of amyloid plaques (amyloid plaques): clearly stained amyloid plaques | Binding affinity for Aβ aggregates (Aβ aggregates): high binding affinities | Fluorescence staining (PrP^Sc deposits [1]): Only background signals

COc1ccc(/C=C/c2cc(=O)c3cc([123I])ccc3o2)cc1 [[^123I]SC-OMe]
Ex vivo autoradiography, accumulation in PrP^Sc-positive regions (PrP^Sc deposits [2]; mBSE-infected mice): significant [^123I]SC-OMe accumulation | Ex vivo autoradiography, accumulation in contralateral site (PrP^Sc deposits [2]; mBSE-infected mice): no significant accumulation | Ex vivo autoradiography, binding in mock-infected mouse brain (PrP^Sc deposits [2]; mock-infected mice): low signals | %SUV (PrP^Sc deposits [3]; early period (15–48 min), PBS-injected ipsilateral hemisphere of mock-infected mice): 13.4 %SUV | %SUV (PrP^Sc deposits [3]; early period (15–48 min), PrP^Sc-positive upper right hemisphere of mBSE-infected mouse): 46.5 %SUV | %SUV (PrP^Sc deposits [3]; early period (15–48 min), contralateral site of mBSE-infected mice): 23.3 %SUV | %SUV (PrP^Sc deposits [3]; late period (50–85 min), contralateral site of mBSE-infected mice): 3.7 %SUV | %SUV (PrP^Sc deposits [3]; late period (50–85 min), ipsilateral site of mock-infected mice): 3.5 %SUV | %SUV (PrP^Sc deposits [3]; late period (50–85 min), right hemisphere of mBSE-infected mice): 7.5 %SUV

CNc1ccc(C=Cc2cc(=O)c3cc([125I])ccc3o2)cc1 [[^125I]SC-NHMe]
In vitro autoradiography, distribution of radioactivity (PrP^Sc deposits [4]; brain sections of mock-infected mice): homogeneous distribution of radioactivity | In vitro autoradiography, signal in PrP^Sc deposit region (PrP^Sc deposits [4]; mBSE-infected mice, right corpus callosum region): high level of background and no significant accumulation of prion deposits

O=c1cc(/C=C/c2ccc(O)cc2)oc2ccc(I)cc12 [SC-OH, (E)-6-Iodo-2-(4-hydroxylstyryl)-chromone]
Ki (rMoPrP aggregates [5]): 35 ± 3.72 nM

CN(C)c1ccc(/C=C/C(=O)c2ccc([125I])cc2)cc1 [[^125I]CL-NMe2]
Bmax (rMoPrP aggregates [6]): 16.7 pmol/nmol protein | Kd (rMoPrP aggregates [6]): 246 nM and 224 nM

Nc1ccc(/C=C/c2cc(=O)c3cc(I)ccc3o2)cc1 [SC-NH2, (E)-6-Iodo-2-(4-aminostyryl)-chromone]
Ki (rMoPrP aggregates [5]): 58.7 ± 5.93 nM | fold lower binding affinity than SC-OMe (rMoPrP aggregates [5]): 2.8 fold

O=c1cc(/C=C/c2ccc(OCCO)cc2)oc2ccc(I)cc12 [SC-OEtOH, (E)-6-Iodo-2-(4-hydroxyethoxystyryl)-chromone]
Ki (rMoPrP aggregates [5]): 221 ± 46.7 nM

CN(C)c1ccc(-c2cc(=O)c3cc(I)ccc3o2)cc1 [FL-NMe2, 6-Iodo-4′-dimethyaminoflavone]
Staining of amyloid plaques (amyloid plaques): clearly stained amyloid plaques | Binding affinity for Aβ aggregates (Aβ aggregates): high binding affinities | Fluorescence staining (PrP^Sc deposits [1]): Only background signals

COc1ccc(/C=C/c2cc(=O)c3cc(I)ccc3o2)cc1OC [SC-(OMe)2, (E)-6-Iodo-2-(3,4-dimethoxystyryl) chromone]
Ki (rMoPrP aggregates [5]): 26.6 ± 1.48 nM | Fluorescence staining (PrP^Sc deposits [1]): no significant signals | Fluorescence staining of PrP^Sc deposits (PrP^Sc deposits [1]): clear fluorescence images

Ic1ccc2nc(-c3ccc(-c4ccn[nH]4)cc3)cn2c1 [^125I-DRM106]
Kd (Aβ (1–42) fibrils): 10.1 nM

COc1ccc(/C=C/c2cc(=O)c3cc(I)ccc3o2)cc1 [SC-OMe, (E)-6-Iodo-2-(4-methoxystyryl) chromone]
Ki (rMoPrP aggregates [5]): 20.8 ± 0.69 nM | Fluorescence staining (PrP^Sc deposits [1]): no significant signals | Fluorescence staining of PrP^Sc deposits (PrP^Sc deposits [1]): clear fluorescence images

CN(C)c1ccc(C=C2Oc3ccc(I)cc3C2=O)cc1 [AR-NMe2, 2-[(4-Dimethylaminophenyl)methylene]-5-iodo-3(2H)-benzofuranone]
Staining of amyloid plaques (amyloid plaques): clearly stained amyloid plaques | Binding affinity for Aβ aggregates (Aβ aggregates): high binding affinities | Fluorescence staining (PrP^Sc deposits [1]): Only background signals

[125I]c1ccc2nc(-c3ccc(-c4ccn[nH]4)cc3)cn2c1 [^125I-DRM106]
Bmax (Aβ (1–42) fibrils): 34.3 pmol/nmol

CN(C)c1ccc(/C=C2\Oc3ccc([125I])cc3C2=O)cc1 [[^125I]AR-NMe2]
Bmax (rMoPrP aggregates [6]): 34.9 pmol/nmol protein | Kd (rMoPrP aggregates [6]): 125 nM and 119 nM

CN(C)c1ccc(/C=C/c2cc(=O)c3cc([125I])ccc3o2)cc1 [[^125I]SC-NMe2]
fold higher binding affinity compared with [125I]AR-NMe2 (rMoPrP aggregates [6]): 3.5 fold | Kd (rMoPrP aggregates [6]): 24.5 nM and 36.7 nM

CN(C)c1ccc(-c2cc(=O)c3cc([125I])ccc3o2)cc1 [[^125I]FL-NMe2]
Bmax (rMoPrP aggregates [6]): 11.2 pmol/nmol protein | Kd (rMoPrP aggregates [6]): 201 nM

CNc1ccc(/C=C/c2cc(=O)c3cc(I)ccc3o2)cc1 [SC-NHMe, (E)-6-Iodo-2-(4-(methylamino)styryl)-chromone]
Ki (rMoPrP aggregates [5]): 17 ± 5.41 nM | Fluorescence staining (PrP^Sc deposits [1]): no significant signals | Fluorescence staining of PrP^Sc deposits (PrP^Sc deposits [1]): clear fluorescence images

CN(C)c1ccc(/C=C/c2cc(=O)c3cc(I)ccc3o2)cc1 [SC-NMe2, (E)-6-Iodo-2-(4-(dimethylamino)styryl)-chromone]
Staining of amyloid plaques (amyloid plaques): clearly stained amyloid plaques | Binding affinity for Aβ aggregates (Aβ aggregates): high binding affinities | Bmax (rMoPrP aggregates [6]): 36.3 pmol/nmol protein | Kd (rMoPrP aggregates [6]): 24.5 nM | Fluorescence staining (PrP^Sc deposits [1]): Only background signals | Fluorescence staining of PrP^Sc deposits (PrP^Sc deposits [1]): clearly labelled PrP^Sc deposits | Brain uptake and washout [7]: low brain uptake and slow washout
